From patent US20260215418A1, “HYDROCARBON ALCOHOLS AND THEIR DERIVATIVES AS SYNERGISTS IN PESTICIDE ACTIVITY” (priority 2022, published 2026)
Entries after “also recorded” stand apart in the source; their conditions may differ.

Legend:
Format in all cases: in vivo
Blatta lateralis = test: Contact test on non-porous tile, Blatta lateralis; settings: Blatta lateralis; synergist applied with Imidacloprid
Experimental: 1 ml of Composition 24 was distributed on the tile. […] 1 ml of Composition 20c was distributed on a tile. […] 1 ml of Composition 20d was distributed on a tile.
1 ml of Composition 24 was distributed on the tile. […] 1 ml of Composition 28 was distributed on a tile. […] Each experiment (A-B) was conducted in duplicate.
1 ml of Composition 24 was distributed on the tile. […] 1 ml of Composition 21 was distributed on a tile.
1 ml of Composition 4b was distributed on the tile. […] 1 ml of Composition 31c was distributed on a tile. […] 1 ml of Composition 31d was distributed on a tile. […] 1 ml of Composition 31d was distributed on a tile.
1 ml of Composition 24 was distributed on the tile. […] 1 ml of Composition 35 was distributed on a tile. […] 1 ml of Composition 40b was distributed on a tile. […] 1 ml of Composition 42 was distributed on a tile.

Musca domestica L. = test: Contact test on non-porous tile, Musca domestica; settings: for synergizing effect on Azamethiphos / synergizing effect on Cypermethrin / synergizing effect on Spinosad: Musca domestica L.; for synergizing effect on Azamethiphos: synergist applied with Azamethiphos; for synergizing effect on Cypermethrin: synergist applied with Cypermethrin; for synergizing effect on Spinosad: synergist applied with Spinosad; for mortality at 680 µg/mL: 0.68 mg/ml
Blattella germanica = test: Contact test on non-porous tile, Blattella germanica; settings: Blattella germanica; synergist applied with Imidacloprid
Experimental: 1 ml of Composition 36 was distributed on the tile. […] 1 ml of Composition 37 was distributed on a tile.

[1] = Musca domestica, single substance alone, 48 h, read-out: Mortality %/time (h)

Compound	synergizing effect on Imidacloprid (Blatta lateralis)	synergizing effect on Azamethiphos (Musca domestica L.)	synergizing effect on Cypermethrin (Musca domestica L.)	synergizing effect on Spinosad (Musca domestica L.)	mortality at 150 µg/mL (Musca domestica L.; Musca domestica, single substance alone, 0.15 mg/ml, 48 h, read-out: Mortality %/time (h)) [%]	mortality at 510 µg/mL (Musca domestica L.; Musca domestica, single substance alone, 0.51 mg/ml, 48 h, read-out: Mortality %/time (h)) [%]	mortality at 680 µg/mL (Musca domestica L.; [1]) [%]	mortality at 1020 µg/mL (Musca domestica L.; Musca domestica, single substance alone, 1.02 mg/ml, 48 h, read-out: Mortality %/time (h)) [%]	mortality at 33000 µg/mL (Musca domestica L.; Musca domestica, single substance alone, 33.00 mg/ml, 48 h, read-out: Mortality %/time (h)) [%]	synergizing effect on Imidacloprid (Blattella germanica)	Mortality %/time (h) (Musca domestica L.; single substance alone, 0.15 mg/ml, 48 h)	Mortality %/time (h) (Musca domestica L.; single substance alone, 0.51 mg/ml, 48 h)	Mortality %/time (h) (Musca domestica L.; single substance alone, 0.88 mg/ml, 48 h)	Mortality %/time (h) (Musca domestica L.; single substance alone, 28.53 mg/ml, 48 h)
CCCCCCCC/C=C\CCCCCCCCOC(C)=O [Oleyl acetate]	excellent synergizing effect	high synergizing effect	high synergizing effect	fine synergizing effect	0	0	60	0	18					
CCCCCCCCOC(=O)OCCCCCCCC [dioctyl carbonate]	good synergizing effect	excellent synergizing effect	high synergizing effect	fine synergizing effect			33							
Oleic alcohol [Oleic alcohol 95%]	same synergizing effect of PBO	high synergizing effect	synergistic effect, comparable to the activity shown by PBO; also recorded: good synergizing effect							fine synergizing effect	1/48 ^ %	5/48 ^ %	8/48 ^ %	18/48 ^ %
